Source: patent publication US11110115B2, “Nucleic acid molecule with anti-inflammatory and anti-coagulant and organ-protective properties” (APTAHEM AB, priority 2017, dated 2021)

Experiments:
[1] = Arteriovenous shunt model, thrombus weight; format: in vivo, Sprague-Dawley male rats; settings: SEQ ID NO:2 33.3 mg/kg i.v. 5 min prior; Rivaroxaban 10 mg/kg p.o. 90 min prior; 15 min extracorporeal circulation
Method: This study was conducted at Shanghai WuXi AppTec Co., Ltd., and in accordance with WuXi IACUC standard animal procedures along with the IACUC guidelines that are in compliance with the Animal Welfare Act, the Guide for the Care and Use of Laboratory Animals, and the Office of Laboratory Animal Welfare (OLAW). Sprague-Dawley male rats with body weight ranging between 150-200 g (Vital River; Bejing, P.R. China) were fed ad libitum a rodent diet. Animals had free access to autoclaved and acidified drinking water. Animals were housed under standard laboratory conditions, air conditioned and filtered with adequate fresh air supply. Animals were kept in a climate controlled environment. Rivaroxaban (10 mg/kg) has been dissolved in water and stored at 4° C. 20 mg SEQ ID NO:2 (Biospring) was dissolved in 3 ml Saline, vortexed for 5 min., sonicated with a water bath ultrasonic for 1 minute to achieve 6.66 mg/ml SEQ ID NO:2. The animals were assigned to 3 dosing groups according to the body weight (see table 2). […] Extracorporeal circulation was maintained for 15 min, the thrombus weight formed on the thread was calculated by subtracting the average weight of the rough nylon thread. Significance of difference between control and treated groups was analyzed by performing analysis of variance (ANOVA) by EXCEL office software.

[2] = Tail bleeding model (bleeding time); format: in vivo, Sprague-Dawley rats; settings: SEQ ID NO:2 5, 20, 40 mg/kg i.v. 5 min before, Rivaroxaban 10 mg/kg PO 1 hour before, Warfarin 0.5 mg/kg IV
Method: A total of 36 Sprague-Dawley male and female rats were utilized and divided into six groups comprising of 6 animals per group. Animal handling was performed according to guidelines of the National Institute of Health and the Association for Assessment and Accreditation of Laboratory Animal Care. Animals were fed ad libitum a commercial rodent diet (Teklad Certified Global 18% Protein Diet cat #: 2018SC). Animals had free access to autoclaved and acidified drinking water (pH between 2.5 and 3.5) obtained from the municipality supply. Animals were housed under standard laboratory conditions, air conditioned and filtered with adequate fresh air supply. Animals were kept in a climate controlled environment.
SEQ ID NO:2 (Biospring) (100 mg) was dissolved in 5 ml saline to form a stock solution of 20 mg/ml. Vehicle (saline) was provided by Pharmaseed as ready to use for i.v. administration. Rivaroxaban (Bayer, Pharmaseed Ltd) dosing solution was diluted at 10 mg/kg (Group 2M). Warfarin (Ceriliant, Pharmaseed Ltd) was diluted at 0.5 mg/kg (Group 3M). Both Rivaroxaban and Warfarin are clinical standards with anticoagulation activity. To obtain SEQ ID NO:2 dosing solution (2.5 mg/ml) for dose level of 5 mg/kg and dose volume of 2 ml/kg for i.v. injection, 0.375 ml of the above 20 mg/ml stock solution was diluted with 2.625 ml of saline (Group 4M). To obtain SEQ ID NO:2 dosing solution (10 mg/ml) for dose level of 20 mg/kg and dose volume of 2 ml/kg for i.v. injection, 1.5 ml of the above 20 mg/ml stock solution was diluted with 1.5 ml saline (Group 5M). To obtain SEQ ID NO:2 dosing solution (20 mg/ml) for dose level of 40 mg/kg and dose volume of 2 ml/kg for i.v. injection, the above 20 mg/ml stock used (Group 6).
Rats were intravenously injected five minutes before bleeding time assay. […] Three treated groups received SEQ ID NO:2 at dose levels of 5, 20 and 40 mg/kg saline solution. In each gender, control groups received saline Vehicle. A positive control group received Rivaroxaban (10 mg/kg). Rivaroxaban was administered by oral gavage 1 hour before bleeding time assay. A second positive control groups received Warfarin (0.5 mg/kg).
Male and female rats were anaesthetized by intraperitoneal injection of ketamine/xylazine. Bleeding time was monitored as described in Stupnisek et al. (2012), until blood flow stopped for a complete 30-sec interval or till the end of 30 min period. In deeply anaesthetized rats (placed in ventral position) the tail was transected with a surgical scalpel 2 mm from the tip (and submerged into a tube with 40 ml of saline at room temperature in vertical position) and the duration and amount of bleeding was measured to evaluate the hemostatic effect of the agents or saline administration. Following the completion of bleeding time evaluation, all rats were immediately sacrificed by CO2 asphyxiation.
Numerical results were given as means±standard errors. If applicable, statistical analysis was carried out using one-way ANOVA followed by Dunnett's Multiple Comparison post Test. A probability of 5% (p≤0.05) was regarded as significant.

[3] = Activated partial thromboplastin time (APTT) in arteriovenous shunt model; format: in vivo, Sprague-Dawley male rats; settings: SEQ ID NO:2 33.3 mg/kg i.v. 5 min prior; Rivaroxaban 10 mg/kg p.o. 90 min prior
[4] = Prothrombin time in arteriovenous shunt model; format: in vivo, Sprague-Dawley male rats; settings: SEQ ID NO:2 33.3 mg/kg i.v. 5 min prior; Rivaroxaban 10 mg/kg p.o. 90 min prior
Method: FIG. 2: Anti-coagulant activity of SEQ ID NO:2 in Arteriovenous Shunt model. Male rats were intravenously injected with saline (Vehicle) or SEQ ID NO:2 solution, according to their body weight. Rivaroxaban was orally administered to the positive control group. 5 to 90 minutes after administration, rats were anesthetized with pentobarbital-na (50 mg/kg). The left jugular vein and the right carotid artery of anesthetized rats were connected with two catheters. The thrombus weight formed on the thread was calculated by subtracting the average weight of the rough nylon thread (A). Prothrombin times were measured (B) and Activated partial thromboplastin times (APTT) were analysed (C). Each bar represents the mean±SEM (n=8 for vehicle and rivaroxaban groups, n=3 for SEQ ID NO:2 group), *p<0.05, **p<0.01, ***p<0.001 vs Vehicle.
The animals were assigned to 3 dosing groups according to the body weight (see table 2). Vehicle treated animals were intravenously injected with saline 90 min prior to shunt assay. The positive control treated animals were orally given Rivaroxaban 10 mg/kg at 90 min prior to shunt assay. SEQ ID NO:2 was intravenously injected 5 min prior to shunt assay.

O=C(NC[C@H]1CN(c2ccc(N3CCOCC3=O)cc2)C(=O)O1)c1ccc(Cl)s1 [Rivaroxaban, reference compound]
thrombus weight, less than vehicle group [1]: 26.5%
group average bleeding time compared to matched vehicle group ([2]; female rats): increased significantly
group average bleeding time compared to matched vehicle group ([2]; male rats): increased significantly
Activated Partial Thromboplastin Time (APTT) compared to vehicle group [3]: did not show any different
Prothrombin times compared to vehicle group [4]: significantly prolonged

CC(=O)CC(c1ccccc1)c1c(O)c2ccccc2oc1=O (stereo not shown) [Warfarin, reference compound]
group average bleeding time compared to matched vehicle group ([2]; female rats): increased significantly
group average bleeding time compared to matched vehicle group ([2]; male rats): increased significantly
